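Tested at 5 concentrations; 48 h exposure; 96-well plates; endpoints linearly interpolated, else capped at highest concentration. GI50: concentration for 50% inhibition of growth. At the TGI there is no net growth.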

Consider 18 compounds from PubChem BioAssay (NCI).

One test concerns DU-145 prostate. Kind of test: NCI-60 cell line screen, 48 h.
With `C[C@]12CC[C@@H]3c4ccc(O)cc4CC[C@H]3[C@@H]1CC[C@@H]2NS(=O)(=O)c1cccc(F)c1`, the GI50 is 5.45 µM and the TGI was 17.9 µM.
`Cc1cc(S(=O)(=O)N/N=C(\Sc2cc(Cl)c(C)cc2S(N)(=O)=O)c2ccc(Cl)cc2)c(Cl)cc1Cl`: the GI50 was greater than 100 µM and the TGI was greater than 100 µM.
In the case of `CC(=O)/C=C/c1ccc(C#Cc2ccccc2)s1`, the GI50 was 10.8 µM and the TGI was determined as 24 µM.
Consider `CC(C)OC(=O)NNc1cc(Cl)ccc1Cl`, for which the TGI is greater than 100 µM.
`Cc1cc(C2CC(O)C(CO)O2)cc2c(=O)[nH]c(N)nc12` (stereo not drawn): the GI50 is greater than 100 µM and the TGI was greater than 100 µM.
In the case of `COc1cc2c(cc1O)C1Cc3ccc(OC)c(O)c3C(C2)N1C` (stereo not drawn), the TGI is greater than 100 µM.
`COc1ccc2c(c1)[C@@]13CCCC[C@H]1[C@@H](C2)N(C)CC3=O` yielded a TGI of 45.2 µM.
`COc1cccc(/C(COc2ccc3c(c2)oc(=O)c2cc(OC)ccc23)=N/O)c1`: the GI50 was 26 µM and the TGI is greater than 100 µM.
The compound `N=C(N)SCc1cccc(-c2nc3ccccc3c(=O)o2)c1` yielded a TGI greater than 100 µM.
In the case of `Cc1cc2c(cc1Cl)SC(=Nc1ccc(Cl)cc1)N(S(=O)(=O)c1ccccc1)S2(=O)=O`, the GI50 is 12.6 µM and the TGI is 25.1 µM.
On to `Oc1cn(-c2ccc(Cl)cc2)nc1-c1n[nH]c(=S)n1C1CCCCC1`, for which the GI50 is 0.502 µM and the TGI was greater than 33.9 µM.
As for `COc1ccc(Nc2c3ccccc3nc3occ(Cl)c23)cc1`, the GI50 was 0.0874 µM and the TGI came to 22 µM.
In the case of `Cn1cc(C2=C(c3cn(CCCCCN)c4ccccc34)C(=O)NC2=O)c2ccccc21`, the GI50 was 13.8 µM and the TGI is greater than 25 µM.
On to `Cc1cc[c-]cc1.Fc1c[c-]c(-c2ccccn2)c(F)c1.[Pt+2].c1ccc(P(C[PH+](c2ccccc2)c2ccccc2)c2ccccc2)cc1`, for which the GI50 was 2.99 µM and the TGI worked out at 12.8 µM.
The compound `C=C1C(=O)O[C@H]2/C=C(/C)C3=CC(=O)[C@@](C)(C[C@@H](OC(=O)/C(C)=C\C)C12)O3` (stereo partly drawn) gave a TGI of 8.99 µM.
Take `O=C(CSC(c1ccccc1)c1ccccc1)N/N=C/c1ccc(Cl)cc1Cl`: the GI50 was 32.9 µM and the TGI is 93.5 µM.

The subject of a further test is OVCAR-8 ovarian. The test can be described thus: NCI-60 cell line screen, 48 h.
On to `CCc1ccccc1NC(=O)c1sc2nc3c(cc2c1N)C(=O)CCC3`, for which the GI50 is 2.88 µM and the TGI was greater than 100 µM.
Take `C[C@]12CC[C@@H]3c4ccc(O)cc4CC[C@H]3[C@@H]1CC[C@@H]2NS(=O)(=O)c1cccc(F)c1`: the GI50 is 3.84 µM and the TGI stood at 15.8 µM.
The corresponding values for `Cc1cc(S(=O)(=O)N/N=C(\Sc2cc(Cl)c(C)cc2S(N)(=O)=O)c2ccc(Cl)cc2)c(Cl)cc1Cl` are greater than 100 µM and greater than 100 µM.
As to `CC(=O)/C=C/c1ccc(C#Cc2ccccc2)s1`, the GI50 was 19 µM and the TGI turned out to be 57.3 µM.
Take `CC(C)OC(=O)NNc1cc(Cl)ccc1Cl`: the TGI is greater than 100 µM.
`Cc1cc(C2CC(O)C(CO)O2)cc2c(=O)[nH]c(N)nc12` (stereo not drawn): the GI50 is greater than 100 µM and the TGI is greater than 100 µM.
For the compound `COc1cc2c(cc1O)C1Cc3ccc(OC)c(O)c3C(C2)N1C` (stereo not drawn), the TGI is greater than 100 µM.
Take `COc1ccc2c(c1)[C@@]13CCCC[C@H]1[C@@H](C2)N(C)CC3=O`: the TGI turned out to be 42.1 µM.
Consider `COc1cccc(/C(COc2ccc3c(c2)oc(=O)c2cc(OC)ccc23)=N/O)c1`, for which the GI50 is 9.77 µM and the TGI is greater than 100 µM.
Compound `N=C(N)SCc1cccc(-c2nc3ccccc3c(=O)o2)c1` yielded a TGI greater than 100 µM.
Turning to `Cc1cc2c(cc1Cl)SC(=Nc1ccc(Cl)cc1)N(S(=O)(=O)c1ccccc1)S2(=O)=O`, the GI50 was 12.4 µM and the TGI came to 30.8 µM.
With `Oc1cn(-c2ccc(Cl)cc2)nc1-c1n[nH]c(=S)n1C1CCCCC1`, the GI50 was 0.46 µM and the TGI was found to be 16.8 µM.
`COc1ccc(Nc2c3ccccc3nc3occ(Cl)c23)cc1`: the GI50 is 0.0476 µM.
In the case of `Cn1cc(C2=C(c3cn(CCCCCN)c4ccccc34)C(=O)NC2=O)c2ccccc21`, the GI50 is 11 µM and the TGI was greater than 25 µM.
For `Cc1cc[c-]cc1.Fc1c[c-]c(-c2ccccn2)c(F)c1.[Pt+2].c1ccc(P(C[PH+](c2ccccc2)c2ccccc2)c2ccccc2)cc1`, the GI50 was 2.68 µM and the TGI was determined as 15.4 µM.
`C=C1C(=O)O[C@H]2/C=C(/C)C3=CC(=O)[C@@](C)(C[C@@H](OC(=O)/C(C)=C\C)C12)O3` (stereo partly drawn) registered a TGI of 3.94 µM.
Consider `O=C(CSC(c1ccccc1)c1ccccc1)N/N=C/c1ccc(Cl)cc1Cl`, for which the GI50 was 37.9 µM and the TGI was greater than 100 µM.

In a further test the test system is HOP-92 NSCLC. Kind of test: NCI-60 cell line screen, 48 h.
For `CN(CCCNC(=O)Cc1ccc2ccc3cccc4ccc1c2c34)CCCNc1cc(-c2ccc3ccccc3c2)nc2ccccc12`, the GI50 was 1.41 µM and the TGI turned out to be 3.02 µM.
On to `C[C@]12CC[C@@H]3c4ccc(O)cc4CC[C@H]3[C@@H]1CC[C@@H]2NS(=O)(=O)c1cccc(F)c1`, for which the GI50 was 2.43 µM and the TGI stood at 8.64 µM.
For the compound `Cc1cc(S(=O)(=O)N/N=C(\Sc2cc(Cl)c(C)cc2S(N)(=O)=O)c2ccc(Cl)cc2)c(Cl)cc1Cl`, the GI50 is 47.6 µM and the TGI was greater than 100 µM.
In turn, `CC(C)OC(=O)NNc1cc(Cl)ccc1Cl` returned a TGI greater than 100 µM.
As for `Cc1cc(C2CC(O)C(CO)O2)cc2c(=O)[nH]c(N)nc12` (stereo not drawn), the GI50 is greater than 100 µM and the TGI was greater than 100 µM.
For the compound `COc1cc2c(cc1O)C1Cc3ccc(OC)c(O)c3C(C2)N1C` (stereo not drawn), the TGI was greater than 100 µM.
For the compound `COc1ccc2c(c1)[C@@]13CCCC[C@H]1[C@@H](C2)N(C)CC3=O`, the TGI was found to be 28.4 µM.
As for `COc1cccc(/C(COc2ccc3c(c2)oc(=O)c2cc(OC)ccc23)=N/O)c1`, the GI50 is 37 µM and the TGI was greater than 100 µM.
